The values that follow come from article PMC10144346, “Novel PD-L1-Targeted Phenyl-Pyrazolone Derivatives with Antioxidant Properties” (Molecules, 2023).

The subject of one series is CTLL-2 cells. Description: CTLL-2 cell proliferation reactivation assay (CyQUANT). The class given is cell-based. The following applies: for IC50: CTLL-2 cells with rhPD-L1 chimera, 72 h, n = 3. The source says: Next, we investigated the capacity of the compound to reactivate proliferation of CTLL-2 cells. These cytotoxic T cells expressing […] are maintained in a dormant state when they are cultivated in the presence of recombinant hPD-L1; their proliferation, monitored by flow-cytometry (using the CyQuant cell proliferation test), is reactivated when they are exposed to a PD-L1 inhibitor, thus mimicking a reactivation of the immune system. […] The replacement of the Me substituent of compound 2 with an ethyl group abolished the capacity of the product to promote CTLL-2 cell proliferation. The same result was obtained with a compound bearing a […] chain instead of the ethyl chain (not shown).
The CyQUANT cell proliferation kit (Thermofischer, Waltham, MA, USA) was used to evaluate the growth of the CTLL-2 cell line (ATCC). Cells were prepared by growing them in the presence or absence of rhPD-L1 chimera (R&D) plus the test compound, and then transferring them to microplates for assay according to manufacturer’s instructions (Molecular Probes C35011). A cell-based standard curve was first established, with the amount of fluorescence correlated to the quantity of cells in the wells. Cells were incubated with increasing concentrations of compounds, over a period 72 h. Positive (nivolumab) and negative (no rhPD-L1 Fc chimera) controls were performed to calibrate the assay. IC50 were determined for the restoration of proliferation by global curve fitting with Graphpad. Experiments were repeated three times and IC50 values averaged.

In series [1] the target is T1, recombinant human PD-L1 protein (rhPD-L1) (Homo sapiens, UniProt Q9NZQ7).
T1 construct: purchased R&D Systems 9049-B7-100
Also noted: method as in printed. The following applies: background statement of the introduction, ref not given; cited from earlier work.

The nature of series [2]: EPR DPPH free radical scavenging assay. To be noted: DPPH 100 µM, compound 2 to 90 µM. On the procedure:
(§1) We used two electron paramagnetic resonance (EPR)-based assays to compare the antioxidant potency of the compounds. The first assay was a free radical scavenging test with 1,1-diphenyl-2-picrylhydrazyl (DPPH) to monitor the decay in the EPR signal intensity in the presence of the diamagnetic hydrazine compound. The intensity of the typical EPR spectrum of DPPH (100 μM) decreases in the presence of increasing concentration of the test compounds (Figure 6). The attenuation of the EPR signal reflects the antioxidant effect, clearly visible with each compound. From the EPR data, the concentration of the compound required to reduce the signal intensity by 50% (EC50) was calculated. […] The second assay relies on the use of the spin-trapping agent DMPO (5,5-dimethyl-1-pyrroline N-oxide) to monitor the formation of an oxygen centered radical generated under Fenton conditions (hydrogen peroxide plus ferrous ions). We used methanol as a solvent, thus leading to a monitoring of the methoxy radical DMPO/^•OCH3 characterized with a typical six-line EPR signal with hyperfine coupling constants aN = 13.9 G and aH = 8.3 G (Figure 7). The decrease in the EPR signal was evaluated with the different compounds to compare their relative antioxidant capacity. […] For each compound, we calculated the reaction constants (kr in Table 2). The antioxidant capacity of compounds 4–5 was reduced compared to edaravone (1). Nevertheless, compound 5 maintains a significant activity, with a kr value reduced by a factor 2.6 compared to the reference product 1. […] The value obtained with EDA is consistent with that given in the literature and thus validates our measurements.
(§2) An X-band Brüker Elexsys E500 spectrometer operating at 9.86 GHz was used to perform CW-EPR experiments. CW-EPR spectra were recorded at room temperature with a microwave power of 5.024–10.02 mW and a modulation amplitude of 1–2 G that considers non-saturation conditions. The free radical scavenging molecule DPPH (1,1-diphenyl-2-picrylhydrazyl) and spin trap agent DMPO (5,5-dimethyl-1-pyrroline N-oxide) were used to monitor the antioxidant activity of the test compounds. The solution mixture (50 μL) was filled into a glass capillary, placed in 4 mm quartz EPR tubes for analysis. The inhibition of DPPH (%) was calculated with the equation: I (%) = ((I0 − I)/I0) × 100 where I0 is the area of the EPR spectrum of DPPH (control sample), and I the area of the DPPH spectrum with antioxidant compound. The rate constant for the reaction of antioxidant compounds with ^•OCH3 is expressed by the equation: 1/Ra = 1/Rf + ((Kr [AH])/(ka [DMPO] Rf)) where Rf, and Ra indicate EPR signal area (double integration of EPR signal) of ^•OCH3, DMPO/^•OCH3, respectively. ka and [DMPO] are constants, and a plot of 1/Ra vs. [AH] (concentration of antioxidant compound) gives a straight line with 1/Rf as an intercept and kr/(ka[DMPO]Rf) as the slope. The rate constant for the reaction of ^•OCH3 with antioxidant compounds (kr) is expressed by the equation: kr = (ka [DMPO] × slope)/− intercept.
In general terms: DPPH is a stable violet radical that fades when it is reduced.

Series [3] can be described thus: EPR spin-trapping assay with DMPO under Fenton conditions. To be noted: for DMPO kr / DMPO kr/ka: DMPO 1 mM; for DMPO kr: methanol, reaction with •OCH3; for DMPO kr/ka: ka (DMPO-•OH) = 4.3 × 10^9 M^−1 s^−1. As for the experimental part: as §1, §2
Series [4] is described as follows: Aldehyde (4-HNE) reactivity by HRMS. The following applies: 180 min, 37 °C, [M–H]-. The source says:
Edaravone (1) is a reactive molecule known to form adducts with different aromatic aldehydes, such as formylpterin and vanillin [15, 19]. In aqueous solution, it forms mono- and bis-adducts with the aldehyde compound vanillin [20]. […] Here we have compared the reactivity of compounds 1–5 using another aldehyde with a major biological relevance, 4-hydroxynonenal. 4-HNE is a product of lipid peroxidation implicated in the pathogenesis of diverse human diseases, such as diabetes, aging-related diseases and cancers. […] Edaravone is known to react covalently with 4-HNE to form mono-, bis-, and tris-adducts in solution [25]. We used high-resolution mass spectrometry (HRMS) to monitor the formation of the covalent adducts generated with the phenyl-pyrazolones and 4-HNE after 3 h of incubation at physiological temperature in an aqueous buffer. The formation of mono-, bis-, and tris-adducts was detected unambiguously with each compound (Figure 8). A reaction scheme is represented in Figure 9 for compound 5. In each case, the pyrazolone compound (nucleophile) easily reacted with 4-HNE to generate the different species, each characterized by their corresponding mass (m/z), the ring-double-bond value (rdb, valence values of elements in structure), the signal intensity and the correspondence with the theoretical m/z value (Δppm) (Table 3). The different species can be easily identified, with the isotopic pattern characteristic for the presence of chlorine and carbon atoms (chlorine and carbon cluster isotopes). In all cases, the species formed were identified without any ambiguity from their relative abundances. […] These values were in accordance with the theorical abundances, calculated from the exactive software for the isotopic pattern of the ions from m/z = 489.13606 to m/z = 494.13323.
High resolution mass spectrometry (HRMS) and spectra were recorded with an Exactive Plus mass spectrometer (Thermo Fisher Scientific, San Jose, CA, USA) equipped with a heated electrospray ionisation probe (HESI -II). Each mass analyzer was calibrated with Pierce®ESI positive and negative ion calibration solutions each week (Thermo Fisher Scientific). Optimization of voltages, gas values, and temperatures applied for ion transfer and ionization was performed in negative mode. The tuning parameters were optimized separately with reaction mixture obtained from reaction of nucleophile with the aldehyde. This was completed by infusing first individual solutions of each nucleophile or the aldehyde at 10 pmol/µL. Each reaction mixture was performed during 180 min at 37 °C with the compound at 0.5 mM in phosphate buffer 10 mM, pH = 7.4 and then the reaction mixture was diluted 1/400 in MeOH. The solution was injected with a syringe at a flow rate of 10 µL/min. […]

The target in series [5] is T2, PD-L1 dimers (His-labeled PD-L1 titrated with unlabeled His-PD-L1) (Homo sapiens, UniProt Q9NZQ7).
T2 construct: purchased Biotechne 9049-B7-100
Nature of the series: MST dimerization binding assay. The following applies: test compound 1 µM, labeled His-PD-L1 10 nM. The source says: These observations led us to prioritize compound 5 as a hit compound owing to its potent capacity to bind to PD-L1, to interrupt PD-1/PD-L1 signaling and to reactivate CTLL-2 cell proliferation. Moreover, we selected this compound for an additional reason: its unique capacity to promote dimerization of rhPD-L1. This later property was evidenced using a specific dimerization binding assay which monitors the formation of PD-L1 dimers from a His-labeled PD-L1 protein by MST. The use of a PD-L1 protein with a polyhistidine (6xHis) tag at the C-terminus allows the non-covalent, stable, and selective labeling of the protein with a red fluorescent dye, to facilitate the formation of PD-L1 dimers. […] There is no doubt that this compound is a robust inhibitor of the PD-1/PD-L1 checkpoint.
A labeled His-PD-L1 protein was titrated against an unlabeled His-PD-L1 protein with or without compounds of interest. The test compound (1 µM) and the His-labeled PD-L1 protein (10 nM) are kept constant whereas the unlabeled His-PD-L1 (1 µM) varies with a serial 1:1 ratio of 16 gradients. MST was performed using the same instrument as mentioned above. His-PD-L1 protein (Biotechne # 9049-B7-100) was diluted to 200 nM in commercial PBS-T buffer and was labeled as indicated above. The RED-tris-NTA dye was diluted in PBS-T to 100 nM. The mix was incubated at room temperature in the dark for 30 min. Capillaries were filled individually.

In series [6] the target is T3, interaction between PD-L1 and PD-1 (Homo sapiens, UniProt Q9NZQ7).
T3 construct: expressed in transfected cells; host or cells: CHO-K1
Nature of the series: FRET reporter assay, SHP-2-CFP / PD-1-YFP in CHO-K1 cells activated by rhPD-L1. To be noted: CHO-K1 cells co-transfected PD1-SHP2, PD-L1 10 µM, n = 5, read-out: Bioactivity (IC50), block of PD-L1/PD-1 interaction in cells. The class given is cell-based. For orientation: Reporter assays use an easily measured gene product as a stand-in for the process of interest.

Series [7] concerns the target T1, recombinant human PD-L1 protein (rhPD-L1). Description: Microscale thermophoresis (MST) binding assay. The following applies: rhPD-L1, n = 3, 1:1 binding model. On the technique in general: MST reads how a fluorescent partner responds to local heating, with and without ligand.
A short description of a further series: Solubility. The class given is physicochemical.
The nature of series [8]: Metabolic stability in mouse liver microsomes. The format is in vitro ADME. The source says: The metabolic stability of the compounds in mice liver microsomes was investigated using liver microsomes from male mice (BD Gentest™) with propranolol as a positive control, as described previously. Mouse plasma CD-1 was used to investigate the plasma stability of the molecules, with enalapril as a positive control, as described recently.

T1 sequence (Q9NZQ7 19-239 limits assumed): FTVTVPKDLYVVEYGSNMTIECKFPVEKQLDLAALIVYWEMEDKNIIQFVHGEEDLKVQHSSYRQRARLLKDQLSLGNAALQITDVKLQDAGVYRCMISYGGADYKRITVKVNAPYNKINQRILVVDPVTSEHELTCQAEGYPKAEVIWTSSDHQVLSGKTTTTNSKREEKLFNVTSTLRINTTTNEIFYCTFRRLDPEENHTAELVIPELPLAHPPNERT
T3 sequence (Q9NZQ7 19-239 limits assumed): as above
T2 sequence (Q9NZQ7 19-239 limits assumed): as above

For `COc1nc(OCc2cccc(-c3ccccc3)c2C)ccc1CNCCNC(C)=O` [BMS-202, reference compound], in the series with CTLL-2 cells, the IC50 amounted to 53 ± 17 nM.
A word on the EC50: it is the concentration at which the effect is half-maximal. Read a high EC50 as a need for much substance. Consider `CC1=NN(c2ccccc2)C(=O)C1` [Compound 1, edaravone, reference compound], for which the “Binding to PD-L1” value in series [1] is recorded as “does not bind to PD-L1”. This molecule also had an EC50 in [2] of 35800 nM. In series [3], the DMPO kr is given as 25.9 10^10 M^−1 s^−1 and the DMPO kr/ka worked out at 60. In series [4], the “HRMS intensity of remaining 4-HNE” value was 1.63 × 10^5.
Take `CC1=NN(c2ccc(Cl)cc2Cl)C(=O)C1` [Compound 2]: the concentration for a half-maximal effect (EC50) in series [2] came out at 36500 nM. This molecule returned an IC50 in the series with CTLL-2 cells (Mus musculus, CTLL-2, 72 h) of 53 ± 11 nM. Moreover, in [3], the DMPO kr is listed as 19.3 10^10 M^−1 s^−1 and the DMPO kr/ka came to 45.
As a reminder, the melting point is the temperature, or range, at which the solid turns liquid. The molecule `COc1ccccc1C1=NN(c2ccc(Cl)cc2Cl)C(=O)C1` [Compound 3, 1-(2,4-Dichlorophenyl)-3-(2-methoxyphenyl)-1H-pyrazol-5(4H)-one] yielded a melting point of 188 °C. In series [2], this molecule yielded an EC50 of 34000 nM. In the series with CTLL-2 cells, this molecule came in with an IC50 of 79 ± 7 nM. In the series on CTLL-2 cells (Mus musculus, CTLL-2, 72 h), this molecule gave an IC50 of 70 nM. The “HRMS intensity of remaining 4-HNE” value in series [4] is 1.92 × 10^5. Besides, in [5], the “Promotion of PD-L1 dimerization” value is “inactive”.
As usually defined, the Kd is the equilibrium constant for the complex coming apart. As to `CCC1=NN(c2ccc(Cl)cc2Cl)C(=O)C1` [Compound 4, 1-(2,4-dichlorophenyl)-3-ethyl-1H-pyrazol-5(4H)-one], the melting point came out at 160 °C. Further, the IC50 in [6] is 12 ± 5 nM. Moreover, in series [7], the Kd was 19 ± 3 nM. The molecule also had an EC50 in series [2] of 40900 nM. The “Reactivation of CTLL-2 cell proliferation” value in the series on CTLL-2 cells (CTLL-2 cells with rhPD-L1) is “inactive”. In series [3], the DMPO kr is given as 4.40 10^10 M^−1 s^−1 and the DMPO kr/ka was 10. For the same molecule, the “HRMS intensity of remaining 4-HNE” value in [4] is on record as 1.01 × 10^5. Also, the “Promotion of PD-L1 dimerization” value in series [5] is “inactive”.
Take `Oc1cc(-c2ccccc2F)nn1-c1ccc(Cl)cc1Cl` [Compound 5, 1-(2,4-Dichlorophenyl)-3-(2-fluorophenyl)-1H-pyrazol-5-ol]: the melting point was found to be 229 °C. Moreover, the IC50 in series [6] is 74 ± 7 nM. Also, the “Solubility compared to compound 3” value in “Solubility” was “slightly improved”. For the same molecule, the equilibrium dissociation constant (Kd) in series [7] is 27 ± 4 nM. In series [2], this molecule yielded an EC50 of 38200 nM. The molecule further came in with an IC50 in the series with CTLL-2 cells (Mus musculus, CTLL-2, 72 h) of 43 ± 9 nM. In series [8], the “Microsomal stability compared to compound 3” value was “slightly improved”. In addition, in [3], the DMPO kr is listed as 9.74 10^10 M^−1 s^−1 and the DMPO kr/ka is reported as 23. In addition, the “kr value reduced by a factor compared to reference product 1” value in series [3] (DMPO assay) stood at 2.6. Also, the “HRMS intensity of remaining 4-HNE” value in series [4] is listed as 2.11 × 10^5. In addition, the “Promotion of PD-L1 dimerization” value in series [5] was “promoted the dimerization of PD-L1 in a dose-dependent manner”.
For the molecule atezolizumab, in series [6], the IC50 was 47 ± 11 nM.
